The values below come from patent US20260166016A1, “GPR139 RECEPTOR AGONIST, PREPARATION METHOD THEREFOR, AND APPLICATION THEREOF” (NEUBO APPTECH CO., LTD., priority 2022, published 2026).

Structures are written as SMILES.

For this assay, the target named is T1, GPR139 (Homo sapiens, UniProt Q6DWJ6).
T1 construct: expressed in transfected cells; host or cells: HEK293
T1 sequence (Q6DWJ6 1-353): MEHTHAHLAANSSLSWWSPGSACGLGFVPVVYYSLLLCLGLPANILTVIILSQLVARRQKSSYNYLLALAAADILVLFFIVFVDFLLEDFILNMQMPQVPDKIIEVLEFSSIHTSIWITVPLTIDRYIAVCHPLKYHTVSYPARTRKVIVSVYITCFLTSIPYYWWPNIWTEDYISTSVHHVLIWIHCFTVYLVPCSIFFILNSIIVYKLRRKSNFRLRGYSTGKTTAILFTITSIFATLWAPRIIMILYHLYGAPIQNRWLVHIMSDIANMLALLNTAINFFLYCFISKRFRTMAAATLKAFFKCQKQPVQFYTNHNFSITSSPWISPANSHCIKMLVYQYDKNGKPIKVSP
Description: GPR139 FLIPR cell calcium signal detection in GPR139-transfected HEK293 cells. As to conditions: HEK293 cells transfected with GPR139, read-out: EC50 values of compounds for GPR139. Type of assay: cell-based. How it is done: HEK293 cells were grown in a 10 cm culture dish containing DMEM complete medium (containing glutamine, sodium pyruvate, penicillin/streptomycin, 10% fetal bovine serum) and incubated at 37° C. in a 5% CO2 incubator until 90% confluency. Then subculture twice a week at a ratio of 1:5. During cell passaging, the culture medium was first completely removed, washed once with 4 mL of DPBS, and then 3 mL of trypsin digestion solution was added and mixed well. When cell dissociation was observed, the trypsin solution was aspirated and 5 mL of complete DMEM medium was added. The cells were dispersed by pipetting, and 1 mL of cell suspension was added to each of five new 10 cm culture dishes. Then, 7 mL of complete DMEM medium was supplemented to each dish. After mixing, the cells were cultured at 37° C. in a 5% CO2 incubator.
On the transfection day, cells were digested and seeded into one 10 cm culture dish at appropriate density. 6 mL of DMEM/F12 medium (containing glutamine, sodium pyruvate, HEPES, and fetal bovine serum) was added, and the cells were cultured for 5 hours at 37° C. in 5% CO2. A 50 mL sterile centrifuge tube (Tube A) was taken, and 1 mL of serum-free DMEM/F12 medium (containing glutamine, sodium pyruvate, and HEPES) was added, followed by 10 μg of GPR139 DNA. The mixture was mixed well. Another 50 mL sterile centrifuge tube (Tube B) was taken, and 1 mL of serum-free DMEM medium (containing glutamine, sodium pyruvate, and HEPES) was added, followed by 60 μL of Fugene HD transfection reagent. The mixture was mixed well. 1 mL of Fugene HD transfection reagent from Tube B was transferred to Tube A, mixed well, and incubated at room temperature for 20 minutes. 2 mL of DMEM/F12 medium (containing glutamine, sodium pyruvate, HEPES, and fetal bovine serum) was added to Tube A. After mixing, 4 mL of mixture from Tube A was transferred to the prepared 10 cm dish (total volume 10 mL). The cells were cultured for 20-24 hours at 37° C. in 5% CO2.
The next day, the transfected cells were digested with trypsin digestion solution, and appropriate DMEM/F12 medium (containing glutamine, sodium pyruvate, HEPES, penicillin/streptomycin, fetal bovine serum) was added. The cells were seeded into Matrigel coated 384-well plates with a cell density of 6.67×10^6 cells/mL, 30 μL/well. The 384-well plates were cultured at 37° C. in 5% CO2.
On the third day, 10 μL/well of FLIPR dye (diluted in HEPES solution containing Pluronic and Probenecid) was added to the 384-well cell plate. And the plate was incubated for 40 minutes at 37° C. in 5% CO2. Diluted compounds were added to the cell plate and calcium signals were measured using a FLIPR plate reader.
Data were analyzed using XL-fit software to obtain EC50 values for each compound.
For `C[C@H](NC(=O)CNC(=O)c1cccc(F)c1)c1ccccc1F` [NRB153], the EC50 – broadly, the concentration giving half of the maximal effect – was 0.1 to 100 nM.

For `C[C@H](NC(=O)CNC(=O)c1cccc(F)c1)c1c(F)cccc1F` [NRB154], the EC50 lay within 100 to 1000 nM.

As to `C[C@H](NC(=O)CNC(=O)c1cc(F)ccn1)c1ccccc1F` [NRB156], the EC50 was 100 to 1000 nM.

In the case of `C[C@H](NC(=O)CNC(=O)c1cccc(Cl)c1)c1cc(F)ccc1F` [NRB178], the EC50 is 0.1 to 100 nM.

As for `C[C@H](NC(=O)CNC(=O)c1cccc(Cl)c1)c1cccc(F)c1F` [NRB180], the EC50 was 0.1 to 100 nM.

For the compound `C[C@H](NC(=O)CNC(=O)c1cc(F)cc(F)c1)c1c(F)cccc1F` [NRB202], the EC50 lay within 0.1 to 100 nM.

As for `COc1cc(F)nc(C(=O)NCC(=O)N[C@@H](C)c2ccccc2F)c1` [NRB211], the EC50 lay in the range of 0.1 to 100 nM.

For `C[C@H](NC(=O)CNC(=O)c1cc(F)cc(C(F)(F)F)n1)c1c(F)cccc1F` [NRB214], the EC50 was in the range of 100 to 1000 nM.

For `COc1cc(F)nc(C(=O)NCC(=O)N[C@@H](C)c2c(F)cccc2F)c1` [NRB215], the EC50 was in the range of 0.1 to 100 nM.

`C[C@H](NC(=O)CNC(=O)c1cc(Cl)cc(Cl)c1)c1c(F)cccc1F` [NRB216]: the EC50 was in the range of 0.1 to 100 nM.

In the case of `COc1cc(Cl)cc(C(=O)NCC(=O)N[C@@H](C)c2c(F)cccc2F)n1` [NRB221], the EC50 was 100 to 1000 nM.

Take `C[C@H](NC(=O)CNC(=O)c1cc(Cl)cc(C(F)(F)F)n1)c1c(F)cccc1F` [NRB222]: the EC50 fell in the range of 100 to 1000 nM.

As for `C[C@H](NC(=O)CNC(=O)c1cc(Cl)cc(F)n1)c1c(F)cc(F)cc1F` [NRB225], the EC50 was 0.1 to 100 nM.

Consider `C[C@H](NC(=O)CNC(=O)c1cc(Cl)cc(C(F)(F)F)n1)c1c(F)cc(F)cc1F` [NRB227], for which the EC50 was in the range of 100 to 1000 nM.
